Several values for one entry are separate records, joined by “and”; a condition that tells them apart may be missing. Equal entries are not always repeated.
System: custom murine 40-gene Precision Profile for Rheumatoid Arthritis, whole blood
Assay: Collagen Induced Arthritis (CIA) model, whole blood gene expression by QPCR, vehicle or dexamethasone treatment
Type: in vivo, male DBA/1 mice
Settings: for Normalized CT (Delta CT) IL1RAP_M / Normalized CT (Delta CT) IL1RN—M / Normalized CT (Delta CT) IL6_M / Normalized CT (Delta CT) JUN_M / Normalized CT (Delta CT) MEF2C—M / Normalized CT (Delta CT) NFKB1—M / Normalized CT (Delta CT) PADI4—M / Normalized CT (Delta CT) PLA2G7—M / Normalized CT (Delta CT) PTPRC_M / Normalized CT (Delta CT) PTX3_M / Normalized CT (Delta CT) SER-PINE1_M / Normalized CT (Delta CT) TGFB1_M / Normalized CT (Delta CT) TIMP1_M / Normalized CT (Delta CT) TLR2_M / Normalized CT (Delta CT) TLR4_M / Normalized CT (Delta CT) TNFSF5—M / Normalized CT (Delta CT) TNF_M / Normalized CT (Delta CT) VEGF_M: whole blood
Method: Whole blood gene expression changes were evaluated in vehicle control and drug-treated murine subjects across two murine models of arthritis according to the following arthritis models:
KRN Transgenic Mouse (K/B×N): K/B×N serum from transgenic mouse used to induce arthritis in female BALB/c mice (n=54). Collagen Induced Arthritis (CIA): Bovine type II collagen used to induce arthritis in male DBA/1 mice (n=54).
In addition, naïve, untreated animal groups at baseline and terminal day were included to control for potential age-related changes in gene expression over the extended study periods. Animal groups, time-points, and treatment schedules are summarized in Tables 20A and 20B, respectively.
Whole blood samples from animals were collected by retro-orbital bleed at selected time-points in accordance with the arthritis study schemas described in […], and transferred into sample collection tubes containing a 1.5× lysis solution and RPMI. Samples were processed into total RNA and cDNA. […] It was anticipated from these murine models would provide a better understanding of the relevant molecular response of arthritis induction and their potential correlation to the human disease condition.
Normal murine subject reference values (represented as normalized Ct or ΔCt values) were established for male DBA/1 mice (n=6 for the CIA study arm) and female BALB/c mice (n=6 for the KRN study arm). In both arms of the study, gene expression response of normal (naïve, non-immunized and untreated) murine subjects were evaluated in groups of 6 each at day 0 and day 60 for the CIA study arm, and at day 0 and day 21 for the KRN study arm (see Tables 20A and 20B).
Gene expression responses for this arthritis-induced murine model were evaluated for untreated mice at day 24 and vehicle-treated mice at days 33, 42, and 60 to characterize disease progression.

[1] = CIA Day 33 Treated, group Average
[2] = CIA Day 33 Treated, individual mice
[3] = CIA Day 42 Treated, group Average

## C[C@@H]1C[C@H]2[C@@H]3CCC4=CC(=O)C=C[C@]4(C)[C@@]3(F)[C@@H](O)C[C@]2(C)[C@@]1(O)C(=O)CO [Dexamethasone]
[1]
  ABCA1_M Normalized CT Value (Delta CT), Average: 17.98
  APAF1_M Normalized CT Value (Delta CT), Average: 19.03
  ARG2_M Normalized CT Value (Delta CT), Average: 17.82
  CASP1_M Normalized CT Value (Delta CT), Average: 18.22
  CASP3_M Normalized CT Value (Delta CT), Average: 17.75
  CCR3_M Normalized CT Value (Delta CT), Average: 19.87
  CD8A_M Normalized CT Value (Delta CT), Average: 18.74
  CD14_M Normalized CT Value (Delta CT), Average: 17.29
  CD32_M Normalized CT Value (Delta CT), Average: 18.45
  CD86_M Normalized CT Value (Delta CT), Average: 22.19
  CSPG2_M Normalized CT Value (Delta CT), Average: 18.04
  F3_M Normalized CT Value (Delta CT), Average: 25.08
  HMOX1—M Normalized CT Value (Delta CT), Average: 17.47
  HSPA1A—M Normalized CT Value (Delta CT), Average: 19.62
  ICAM1—M Normalized CT Value (Delta CT), Average: 18.84
  IFI16_M Normalized CT Value (Delta CT), Average: 18.42
  IL1A_M Normalized CT Value (Delta CT), Average: 24.44
  IL1B_M Normalized CT Value (Delta CT), Average: 14.09
  IL10_M Normalized CT Value (Delta CT), Average: 25.81
  Normalized CT (Delta CT) IL1RAP_M: 17.96
  Normalized CT (Delta CT) IL1RN—M: 17.38
  Normalized CT (Delta CT) IL6_M: 23.95
  Normalized CT (Delta CT) JUN_M: 19.37
  Normalized CT (Delta CT) MEF2C—M: 18.84
  Normalized CT (Delta CT) NFKB1—M: 16.55
  Normalized CT (Delta CT) PADI4—M: 17.87
  Normalized CT (Delta CT) PLA2G7—M: 14.85
  Normalized CT (Delta CT) PTPRC_M: 13.58
  Normalized CT (Delta CT) PTX3_M: 25.65
  Normalized CT (Delta CT) SER-PINE1_M: 20.38
  Normalized CT (Delta CT) TGFB1_M: 14.82
  Normalized CT (Delta CT) TIMP1_M: 25.24
  Normalized CT (Delta CT) TLR2_M: 17.70
  Normalized CT (Delta CT) TLR4_M: 18.20
  Normalized CT (Delta CT) TNFSF5—M: 21.06
  Normalized CT (Delta CT) TNF_M: 19.71
  Normalized CT (Delta CT) VEGF_M: 20.19
[2]
  ABCA1_M Normalized CT Value (Delta CT): 17.26 and 18.20 and 17.50 and 17.61 and 19.02 and 18.30
  APAF1_M Normalized CT Value (Delta CT): 18.67 and 19.22 and 18.56 and 19.02 and 19.62 and 19.07
  ARG2_M Normalized CT Value (Delta CT): 17.14 and 18.42 and 17.47 and 17.92 and 17.83 and 18.15
  CASP1_M Normalized CT Value (Delta CT): 17.29 and 18.41 and 17.98 and 18.58 and 18.74 and 18.31
  CASP3_M Normalized CT Value (Delta CT): 16.82 and 17.64 and 17.74 and 18.06 and 18.00 and 18.21
  CCR3_M Normalized CT Value (Delta CT): 18.36 and 19.59 and 19.88 and 20.33 and 20.88 and 20.15
  CD8A_M Normalized CT Value (Delta CT): 17.83 and 18.69 and 18.52 and 18.83 and 19.44 and 19.14
  CD14_M Normalized CT Value (Delta CT): 17.10 and 17.77 and 16.89 and 17.05 and 17.36 and 17.54
  CD32_M Normalized CT Value (Delta CT): 17.52 and 18.69 and 18.07 and 18.17 and 19.57 and 18.71
  CD86_M Normalized CT Value (Delta CT): 21.71 and 22.43 and 21.83 and 21.99 and 22.92 and 22.26
  CSPG2_M Normalized CT Value (Delta CT): 17.33 and 18.26 and 17.36 and 18.91 and 17.94 and 18.42
  F3_M Normalized CT Value (Delta CT): 23.01 and 25.60 and 26.10 and 25.22 and 24.87 and 25.67
  HMOX1—M Normalized CT Value (Delta CT): 16.95 and 17.50 and 17.08 and 17.53 and 17.80 and 17.98
  HSPA1A—M Normalized CT Value (Delta CT): 18.80 and 20.04 and 19.25 and 20.03 and 19.32 and 20.30
  ICAM1—M Normalized CT Value (Delta CT): 18.16 and 19.11 (2×) and 18.33 and 19.33 and 19.01
  IFI16_M Normalized CT Value (Delta CT): 17.31 and 18.37 and 18.29 and 18.56 and 18.70 and 19.31
  IL1A_M Normalized CT Value (Delta CT): 24.58 and 24.31
  IL1B_M Normalized CT Value (Delta CT): 13.46 and 14.53 and 13.95 and 14.00 and 14.32 and 14.27
  IL10_M Normalized CT Value (Delta CT): 25.17 and 25.58 and 26.12 and 26.14 and 25.77 and 26.06
  Normalized CT (Delta CT) IL1RAP_M: 17.64 (2×) and 18.18 and 17.83 and 18.26 and 18.20
  Normalized CT (Delta CT) IL1RN—M: 16.72 and 17.84 and 17.10 and 17.67 and 17.23 and 17.73
  Normalized CT (Delta CT) IL6_M: 23.19 and 24.14 and 23.12 and 24.21 and 24.22 and 24.83
  Normalized CT (Delta CT) JUN_M: 18.61 and 19.69 and 19.28 and 19.18 and 19.87 and 19.60
  Normalized CT (Delta CT) MEF2C—M: 18.46 and 19.03 and 18.51 and 18.82 and 19.65 and 18.56
  Normalized CT (Delta CT) NFKB1—M: 15.81 and 16.66 and 16.35 and 16.51 and 17.38 and 16.63
  Normalized CT (Delta CT) PADI4—M: 17.79 and 18.22 and 17.82 and 17.94 and 17.90 and 17.58
  Normalized CT (Delta CT) PLA2G7—M: 14.49 and 15.12 and 14.67 and 15.01 and 15.09 and 14.74
  Normalized CT (Delta CT) PTPRC_M: 13.01 and 13.82 and 13.27 and 13.81 and 14.11 and 13.46
  Normalized CT (Delta CT) PTX3_M: 25.66 and 25.46 and 25.62 and 25.86 and 26.01 and 25.32
  Normalized CT (Delta CT) SER-PINE1_M: 20.09 and 20.42 and 20.70 and 20.01 and 20.26 and 20.78
  Normalized CT (Delta CT) TGFB1_M: 14.47 and 14.92 and 14.68 and 14.99 and 14.96 and 14.87
  Normalized CT (Delta CT) TIMP1_M: 25.48 and 25.27 and 25.34 and 25.05 and 25.73 and 24.56
  Normalized CT (Delta CT) TLR2_M: 17.23 and 17.92 and 17.46 and 17.97 and 17.84 and 17.81
  Normalized CT (Delta CT) TLR4_M: 17.72 and 18.52 and 18.24 and 18.23 and 18.30 and 18.16
  Normalized CT (Delta CT) TNFSF5—M: 20.24 and 21.35 and 20.73 and 21.36 and 21.76 and 20.95
  Normalized CT (Delta CT) TNF_M: 18.97 and 20.16 and 19.24 and 19.56 and 20.34 and 20.01
  Normalized CT (Delta CT) VEGF_M: 19.55 and 20.59 and 19.74 and 20.04 and 21.29 and 19.96
[3]
  ABCA1_M Normalized CT Value (Delta CT), Average: 19.35
  APAF1_M Normalized CT Value (Delta CT), Average: 19.60
  ARG2_M Normalized CT Value (Delta CT), Average: 17.90
  CASP1_M Normalized CT Value (Delta CT), Average: 18.55
  CASP3_M Normalized CT Value (Delta CT), Average: 18.07
  CCR3_M Normalized CT Value (Delta CT), Average: 19.53
  CD8A_M Normalized CT Value (Delta CT), Average: 19.66
  CD14_M Normalized CT Value (Delta CT), Average: 17.57

— patent US20080227655A1, “Assessment of effect of an agent on a human biological condition using rodent gene expression panels” (priority 2006, published 2008)
